Several values for one entry are separate records, joined by “and”; a condition that tells them apart may be missing. Identical values can stand only once.
Tests used:
Assay type in all cases: cell-based, human
Caov-3 cells = experiment: MTT cytotoxicity assay, Caov-3; settings: for Cell viability % / IC50: 48 h; for IC50: Caov-3, MTT
Method: (§1) The effects of the tested compounds 1–6 on HF-P4, U-118 MG, H1299, BT-20, and Caov-3 cell lines were evaluated by the MTT assay during 48 h treatment (Table 2 and Tables S2–S31). In all tested compounds, we recognized a difference in cytotoxicity between healthy cells (HF-P4) and cancer cell lines (BT-20, Caov-3, and H-1299). […] In the case of ovarian cancer, the authors discovered oncogenic and poor prognosis roles of TET1 in epithelial ovarian carcinoma (EOC). TET1 is believed to demethylate the epigenome and activate numerous oncogenic pathways in EOC. The aforementioned study presents a new mechanism where TET1 contributes to tumor development through collaboration with CK2α [21]. The overexpression of the TET1 protein was also found in triple negative breast cancer and was associated with an activation of PI3K/mTOR pathway and decreased overall survival.
The human ovary adenocarcinoma cell line (Caov-3), purchased from ATCC (Caov-3 (ATCC® HTB-75™), Manassas, VA, USA), was used for the cytotoxicity assay (MTT). Caov-3 cells were cultivated under standard conditions in Dulbecco’s modified Eagle’s medium (ATCC, Manassas, VA, USA) supplemented with 10% FBS and streptomycin (100 μg/mL) at 37 °C at a 5% CO2 atmosphere.
(§2) For the cytotoxicity assay, we used the following cell lines: human glioblastoma cell line U118-MG, human mammary gland/breast cell line BT-20, human ovary adenocarcinoma cell line Caov-3, and non-small-cell lung carcinoma H-1299. As previously mentioned, these cell lines contain a high level of the TET1 protein, which corresponds to a lower overall survival. In addition to these cell cultures, we used the human dermal fibroblast cell line HF-P4 as a healthy control. Determination of cytotoxicity was performed using the MTT [3-(4,5-dimethylthiazol-2-yl)-2,5-diphenyltetrazolium bromide] colorimetric assay. Viable cells from each cell line were cultured in 96-well plates (VWR, Stříbrná Skalice, Czech Republic) at a density of 1.0 × 10^5 cells per well and allowed to grow for 24 h in 200 μL of recommended medium. After a 1-day incubation, the medium was replaced with solutions of compounds 1–6 at concentration ranges of 0.1–20 μM. Each concentration was measured four times within one test, and the entire test was repeated three times. Tested compounds 1–6 were dissolved in DMSO and then diluted with corresponding medium to a final volume of 200 μL (maximum 1% DMSO). After 48 h exposure, cells were treated with 175 μL of MTT solution (P-LAB, Prague, Czech Republic) for 2 h. In the next step, MTT solution was removed, and 125 μL of DMSO (Penta, Prague, Czech Republic) was added to solubilize dark crystals of formazan formed in intact cells, and absorbance was measured at 570 nm by the enzyme-linked immunoabsorbent assay reader Infinite® 200 PRO (Tecan, Männedorf, Switzerland). The final DMSO concentration was smaller than 1% (v/v). The absorbance of untreated cells was considered 100%, and IC50 values were calculated by the GraphPad Prism 8 software. As a parameter for cytotoxicity, we used a concentration that inhibits 50% of cell growth (IC50).

HF-P4 cells = experiment: MTT cytotoxicity assay, HF-P4; settings: 48 h; for Cell viability %: repeats; for IC50: Homo sapiens, MTT
Method: as §1
(§3) A human dermal fibroblast cell line was used for intracellular localization and cytotoxicity assay (MTT). Human fibroblast cells HF-P4 (human fibroblasts—patient 4) are normal dermal fibroblasts, which were obtained from the residual skin of a healthy patient who underwent plastic surgery (with informed consent of the patient). HF-P4 cell lines were obtained from the Department of Plastic Surgery, Third Faculty of Medicine, Charles University and University Hospital Královské Vinohrady, Prague, Czech Republic, as described by Szabo et al., 2011, and Dvořánková et al., 2019 [88, 89], and have been processed in accordance with the relevant local ethics committee and the Declaration of Helsinki protection of patients’ rights and benefits with written and signed informed consent of each patient. Cells were cultivated under standard conditions in Dulbecco’s modified Eagle’s medium (ATCC, Manassas, VA, USA), supplemented with 10% FBS and streptomycin (100 μg/mL) at 37 °C at a 5% CO2 atmosphere.
as §2

[1] = MTT cytotoxicity assay, HF-P4; settings: human, HF-P4 normal human dermal fibroblasts, repeats, read-out: Cell viability %; for viability at 48 h, 0.1 µM: HF-P4, 100 nM; for viability at 48 h, 0.5 µM: HF-P4, 500 nM; for viability at 48 h, 0.75 µM: HF-P4, 750 nM; for viability at 48 h, 1 µM: HF-P4, 1 uM; for viability at 48 h, 2.5 µM: HF-P4, 2.5 uM; for viability at 48 h, 5 µM: HF-P4, 5 uM; for viability at 48 h, 7.5 µM: HF-P4, 7.5 uM; for viability at 48 h, 10 µM: HF-P4, 10 uM; for viability at 48 h, 15 µM: HF-P4, 15 uM; for viability at 48 h, 20 µM: HF-P4, 20 uM
Method: as §1, §3, §2

[2] = Caov-3, 100 nM, repeats, 0.1 µM
[3] = Caov-3, 500 nM, repeats, 0.5 µM
[4] = Caov-3, 750 nM, repeats, 0.75 µM
[5] = Caov-3, 2.5 uM, repeats, 2.5 µM
[6] = Caov-3, 7.5 uM, repeats, 7.5 µM
[7] = Homo sapiens, Caov-3, 48 h, Caov-3, 7.5 uM, repeats, read-out: Cell viability %
[8] = Homo sapiens, Caov-3, 48 h, Caov-3, 10 uM, repeats, read-out: Cell viability %
[9] = Homo sapiens, Caov-3, 48 h, Caov-3, 15 uM, repeats, read-out: Cell viability %
[10] = Homo sapiens, Caov-3, 48 h, Caov-3, 20 uM, repeats, read-out: Cell viability %

SMILES | Cell viability % (Caov-3 cells; [2]) | Cell viability % (Caov-3 cells; [3]) | Cell viability % (Caov-3 cells; [4]) | Cell viability % (Caov-3 cells; Caov-3, 1 uM, repeats, 1 µM) | Cell viability % (Caov-3 cells; [5]) | Cell viability % (Caov-3 cells; Caov-3, 5 uM, repeats, 5 µM) | Cell viability % (Caov-3 cells; [6]) | Cell viability % (Caov-3 cells; Caov-3, 10 uM, repeats, 10 µM) | Cell viability % (Caov-3 cells; Caov-3, 15 uM, repeats, 15 µM) | Cell viability % (Caov-3 cells; Caov-3, 20 uM, repeats, 20 µM) | viability at 7.5 µM (Caov-3 cells; [7]) [%] | viability at 10 µM (Caov-3 cells; [8]) [%] | viability at 15 µM (Caov-3 cells; [9]) [%] | viability at 20 µM (Caov-3 cells; [10]) [%] | IC50 (Caov-3 cells; Homo sapiens) [µM] | Cell viability % (HF-P4 cells; HF-P4, 100 nM, 0.1 µM) | Cell viability % (HF-P4 cells; HF-P4, 500 nM, 0.5 µM) | Cell viability % (HF-P4 cells; HF-P4, 750 nM, 0.75 µM) | Cell viability % (HF-P4 cells; HF-P4, 1 uM, 1 µM) | Cell viability % (HF-P4 cells; HF-P4, 2.5 uM, 2.5 µM) | further results
Cc1ccc(-n2c(-c3ccc(C(=O)N/N=C/c4ccc(O)cc4O)cc3)cc3c2cc(-c2ccc(C(=O)N/N=C/c4ccc(O)cc4O)cc2)n3-c2ccc(C)cc2)cc1 [Compound 4] | 84.95% and 82.17% | 102.391% and 108.5681% | 102.8833% and 94.08% | 98.73% and 92.87% | 74.65% and 110.1266% and 69.7% | 50.71% and 80.94% and 55.26% | 53.66% and 54.17% | 41.07% and 42.6107% | 17.58% and 17.6% | 14.91% and 14.49% | 53.1 | 42.9 | 19.5 | 14.3 | 9.13 | 100.6236% and 114.7117% | 87.47% and 94.87% | 85.1% and 92.38% | 81.67% and 86.71% | 86.63% and 76.23% | viability at 0.1 µM (Caov-3 cells; Homo sapiens, Caov-3, 48 h, Caov-3, 100 nM, repeats, read-out: Cell viability %): 68.6%; viability at 0.5 µM (Caov-3 cells; Homo sapiens, Caov-3, 48 h, Caov-3, 500 nM, repeats, read-out: Cell viability %): 104%; viability at 0.75 µM (Caov-3 cells; Homo sapiens, Caov-3, 48 h, Caov-3, 750 nM, repeats, read-out: Cell viability %): 92.8%; viability at 1 µM (Caov-3 cells; Homo sapiens, Caov-3, 48 h, Caov-3, 1 uM, repeats, read-out: Cell viability %): 101%; Cell viability % (HF-P4 cells; HF-P4, 5 uM, 5 µM): 73.34% and 61.32%; Cell viability % (HF-P4 cells; HF-P4, 7.5 uM, 7.5 µM): 70.27% and 58.24%; Cell viability % (HF-P4 cells; HF-P4, 10 uM, 10 µM): 62.49% and 65.68%; Cell viability % (HF-P4 cells; HF-P4, 15 uM, 15 µM): 53.94% and 54.86%; Cell viability % (HF-P4 cells; HF-P4, 20 uM, 20 µM): 38.68% and 44.63%; IC50 (HF-P4 cells): 13.1 µM; viability at 48 h, 0.1 µM [1]: 102%; viability at 48 h, 0.5 µM [1]: 94.9%; viability at 48 h, 0.75 µM [1]: 84.8%; viability at 48 h, 1 µM [1]: 86%; viability at 48 h, 2.5 µM [1]: 74.5%; viability at 48 h, 5 µM [1]: 74.9%; viability at 48 h, 7.5 µM [1]: 66.9%; viability at 48 h, 10 µM [1]: 59.9%; viability at 48 h, 15 µM [1]: 45.1%; viability at 48 h, 20 µM [1]: 36.4%
COc1cccc(/C=N/NC(=O)c2ccc(-c3cc4c(cc(-c5ccc(C(=O)N/N=C/c6cccc(OC)c6O)cc5)n4-c4ccc(C)cc4)n3-c3ccc(C)cc3)cc2)c1O [Compound 5] | 124.7159% and 131.0561% and 82.4% | 90.56% and 116.6807% and 137.4211% | 97.72% and 117.0859% and 120.9681% | 115.5595% and 95.48% and 128.3145% | 106.339% and 69.34% and 79.185% | 81.63% and 70.92% | 49.35% and 63.65% | 41.31% and 47.33% | 34.22% and 36.44% | 16.1941% and 14.83% | 62.5 | 29.5 | 31.5 | 17.9 | 9.48 | 105.3072% and 105.0738% | 98.21% and 101.0423% | 95.79% and 102.0649% | 86.8% and 100.59% | 91.7616% and 90.46% | viability at 5 µM (Caov-3 cells; Homo sapiens, Caov-3, 48 h, Caov-3, 5 uM, repeats, read-out: Cell viability %): 83.6%; Cell viability % (HF-P4 cells; HF-P4, 5 uM, 5 µM): 65.3% and 72.65%; Cell viability % (HF-P4 cells; HF-P4, 7.5 uM, 7.5 µM): 71.79% and 64.35%; Cell viability % (HF-P4 cells; HF-P4, 10 uM, 10 µM): 58.3808% and 56.93%; Cell viability % (HF-P4 cells; HF-P4, 15 uM, 15 µM): 60.12% and 45.66%; Cell viability % (HF-P4 cells; HF-P4, 20 uM, 20 µM): 55.03% and 53.24%; IC50 (HF-P4 cells): > 20 µM; viability at 48 h, 0.1 µM [1]: 104%; viability at 48 h, 0.5 µM [1]: 105%; viability at 48 h, 0.75 µM [1]: 84.2%; viability at 48 h, 1 µM [1]: 105%; viability at 48 h, 2.5 µM [1]: 96.8%; viability at 48 h, 5 µM [1]: 84%; viability at 48 h, 7.5 µM [1]: 74.5%; viability at 48 h, 10 µM [1]: 76.7%; viability at 48 h, 15 µM [1]: 63%; viability at 48 h, 20 µM [1]: 52.2%
